According to US20050158412A1, “Type II diabetes” (priority 2004, published 2005):

Molecular target: T1, Aldose Reductase (Rattus norvegicus, UniProt P07943)
T1 construct: Aldose Reductase was isolated from Rat lens; from tissue; host or cells: rat lens
Test: Aldose Reductase enzyme assay
Type: biochemical
Details: Wistar rat lens enzyme
Description: Experiments were conducted to test the effects of Morinda citrifolia products on Aldose Reductase. Aldose Reductase is an enzyme that is highly expressed in the eye (lens) of diabetic patients. High expression of Aldose Reductase may lead to blindness. Quantitation of Aldose Redutase activity was achieved by utilizing DL-Glyceraldehyde as a substrate. DL-Glyceraldehyde reacts with NADPH to form NADP+. A spectrophotometer was utilized to quantitiate levels of NADPH. Aldose Reductase was isolated from Rat lens. Quercertin was utilized as a reference compound. Methods employed in this study were adapted from the scientific literature to maximize reliability and reproducibility. […] Biochemical assay results are presented as the percent inhibition of specific binding or activity throughout the report. All other results are expressed in terms of that assay's quantitation method. For primary assays, only the lowest concentration with a significant response judged by the assays' criteria, is shown in this summary.

O=c1c(O)c(-c2ccc(O)c(O)c2)oc2cc(O)cc(O)c12 [Quercetin]
% INH. Aldose Reductase (conc. 1%): 77%
% INH. Aldose Reductase (conc. 5%): 77%
